# Test results as given in patent US12077503B2, “Substituted cyclic amides and their use as herbicides” (FMC CORPORATION, priority 2015, dated 2024).
# Key:
# Format in all cases: in vivo
# corn (Zea mays) = assay: Test A postemergence; settings: Zea mays, post-emergence, 240 h, 125 g ai/ha, postemergence, visual injury rating after approximately 10 d; read-out: Corn plant response rating (0 to 100 scale, 0 no effect, 100 complete control)
# Method in brief: (§1)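 Seeded soil received test chemicals as a preemergence directed spray, and seedlings at one to two leaves, 2–10 cm tall, received them postemergence, in a non-phytotoxic, surfactant-containing solvent mixture. Pots were held in a greenhouse for approximately 10 d, then rated for injury from 0, no effect, to 100, complete control.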
# [1] = tested on: wheat (Triticum aestivum); assay: Test A postemergence; settings: Triticum aestivum, post-emergence, 240 h, 125 g ai/ha, postemergence, visual injury rating after approximately 10 d; read-out: Wheat plant response rating (0 to 100 scale, 0 no effect, 100 complete control)
# Method in brief: as §1
# [2] = tested on: Galium (catchweed bedstraw, Galium aparine); assay: Test A postemergence; settings: Galium, post-emergence, 240 h, 125 g ai/ha, postemergence, visual injury rating after approximately 10 d; read-out: Galium plant response rating (0 to 100 scale, 0 no effect, 100 complete control)
# Method in brief: as §1
# Kochia (Kochia scoparia) [3] = assay: Test A postemergence; settings: Bassia scoparia, post-emergence, 240 h, 125 g ai/ha, postemergence, visual injury rating after approximately 10 d; read-out: Kochia plant response rating (0 to 100 scale, 0 no effect, 100 complete control)
# Method in brief: as §1
# [4] = tested on: giant foxtail (Setaria faberii); assay: Test A postemergence; settings: Setaria faberi, post-emergence, 240 h, 125 g ai/ha, postemergence, visual injury rating after approximately 10 d; read-out: Foxtail, Giant plant response rating (0 to 100 scale, 0 no effect, 100 complete control)
# Method in brief: as §1
# [5] = tested on: blackgrass (Alopecurus myosuroides); assay: Test A postemergence; settings: Alopecurus myosuroides, post-emergence, 240 h, 125 g ai/ha, postemergence, visual injury rating after approximately 10 d; read-out: Blackgrass plant response rating (0 to 100 scale, 0 no effect, 100 complete control)
# Method in brief: as §1
# [6] = tested on: ragweed (common ragweed, Ambrosia elatior); assay: Test A postemergence; settings: Ambrosia artemisiifolia, post-emergence, 240 h, 125 g ai/ha, postemergence, visual injury rating after approximately 10 d; read-out: Ragweed plant response rating (0 to 100 scale, 0 no effect, 100 complete control)
# Method in brief: as §1
# [7] = tested on: barnyardgrass (Echinochloa crus-galli); assay: Test A postemergence; settings: Echinochloa crus-galli, post-emergence, 240 h, 125 g ai/ha, postemergence, visual injury rating after approximately 10 d; read-out: Barnyardgrass plant response rating (0 to 100 scale, 0 no effect, 100 complete control)
# Method in brief: as §1
# [8] = tested on: ryegrass, Italian (Italian ryegrass, Lolium multiflorum); assay: Test A postemergence; settings: Lolium multiflorum, post-emergence, 240 h, 125 g ai/ha, postemergence, visual injury rating after approximately 10 d; read-out: Ryegrass, Italian plant response rating (0 to 100 scale, 0 no effect, 100 complete control)
# Method in brief: as §1
# [9] = tested on: pigweed (Amaranthus retroflexus); assay: Test A postemergence; settings: Amaranthus retroflexus, post-emergence, 240 h, 125 g ai/ha, postemergence, visual injury rating after approximately 10 d; read-out: Pigweed plant response rating (0 to 100 scale, 0 no effect, 100 complete control)
# Method in brief: as §1
# Kochia (Kochia scoparia) [10] = assay: Test A preemergence; settings: Bassia scoparia, pre-emergence, 240 h; for pest or weed control at 125 g/ha: 125 g ai/ha, preemergence, 0 to 100 scale where 0 is no effect and 100 is complete control, read-out: Kochia plant response rating; for pest or weed control at 500 g/ha: 500 g ai/ha, Preemergence, visual injury vs untreated controls after approximately 10 d, read-out: Kochia plant response rating (0 to 100 scale where 0 is no effect and 100 is complete control)
# Method in brief: as §1
# [11] = tested on: ragweed (common ragweed, Ambrosia elatior); assay: Test A preemergence; settings: Ambrosia artemisiifolia, pre-emergence, 240 h; for pest or weed control at 125 g/ha: 125 g ai/ha, preemergence, 0 to 100 scale where 0 is no effect and 100 is complete control, read-out: Ragweed plant response rating; for pest or weed control at 500 g/ha: 500 g ai/ha, Preemergence, visual injury vs untreated controls after approximately 10 d, read-out: Ragweed plant response rating (0 to 100 scale where 0 is no effect and 100 is complete control)
# Method in brief: as §1
# [12] = tested on: barnyardgrass (Echinochloa crus-galli); assay: Test A preemergence; settings: Echinochloa crus-galli, pre-emergence, 240 h; for pest or weed control at 125 g/ha: 125 g ai/ha, preemergence, 0 to 100 scale where 0 is no effect and 100 is complete control, read-out: Barnyardgrass plant response rating; for pest or weed control at 500 g/ha: 500 g ai/ha, Preemergence, visual injury vs untreated controls after approximately 10 d, read-out: Barnyardgrass plant response rating (0 to 100 scale where 0 is no effect and 100 is complete control)
# Method in brief: as §1
# [13] = tested on: ryegrass, Italian (Italian ryegrass, Lolium multiflorum); assay: Test A preemergence; settings: Lolium multiflorum, pre-emergence, 240 h; for pest or weed control at 125 g/ha: 125 g ai/ha, preemergence, 0 to 100 scale where 0 is no effect and 100 is complete control, read-out: Ryegrass, Italian plant response rating; for pest or weed control at 500 g/ha: 500 g ai/ha, Preemergence, visual injury vs untreated controls after approximately 10 d, read-out: Ryegrass, Italian plant response rating (0 to 100 scale where 0 is no effect and 100 is complete control)
# Method in brief: as §1
# [14] = tested on: pigweed (Amaranthus retroflexus); assay: Test A preemergence; settings: Amaranthus retroflexus, pre-emergence, 240 h; for pest or weed control at 125 g/ha: 125 g ai/ha, preemergence, 0 to 100 scale where 0 is no effect and 100 is complete control, read-out: Pigweed plant response rating; for pest or weed control at 500 g/ha: 500 g ai/ha, Preemergence, visual injury vs untreated controls after approximately 10 d, read-out: Pigweed plant response rating (0 to 100 scale where 0 is no effect and 100 is complete control)
Structure (SMILES),plant injury at 125 g/ha (corn (Zea mays)),plant injury at 125 g/ha [1],pest or weed control at 125 g/ha [2],pest or weed control at 125 g/ha (Kochia (Kochia scoparia) [3]),pest or weed control at 125 g/ha [4],pest or weed control at 125 g/ha [5],pest or weed control at 125 g/ha [6],pest or weed control at 125 g/ha [7],pest or weed control at 125 g/ha [8],pest or weed control at 125 g/ha [9],pest or weed control at 125 g/ha (Kochia (Kochia scoparia) [10]),pest or weed control at 500 g/ha (Kochia (Kochia scoparia) [10]),pest or weed control at 125 g/ha [11],pest or weed control at 500 g/ha [11],pest or weed control at 125 g/ha [12],pest or weed control at 500 g/ha [12],pest or weed control at 125 g/ha [13],pest or weed control at 500 g/ha [13],pest or weed control at 125 g/ha [14],pest or weed control at 500 g/ha [14]
Cc1c(F)ccc([C@H]2CN(C)C(=O)[C@@H]2C(=O)Nc2ccc(F)cc2F)c1F [Compound 835],30%,0%,30%,0%,90%,40%,0%,90%,50%,20%,80%,90%,0%,0%,90%,100%,30%,70%,20%,40%
CN1C[C@H](c2cccc(C3CC3)c2)[C@@H](C(=O)Nc2cccc(F)c2F)C1=O [Compound 816],90%,30%,60%,30%,90%,60%,0%,90%,60%,0%,60%,80%,20%,50%,90%,90%,70%,80%,0%,60%
